Paper PMC11242993, “Evaluation of the Therapeutic Potential of Sulfonyl Urea Derivatives as Soluble Epoxide Hydrolase (sEH) Inhibitors” (Molecules, 2024)
“Also recorded” adds a separate entry of the source.

Columns and labels:
mice = experiment: LPS-induced acute lung injury (ALI) model; assay type: in vivo; details: 10 mg/kg i.p.
Protocol: LPS-induced acute lung injury induced by a single oropharyngeal instillation of lipopolysaccharide (LPS) (50 µg/mouse) in 16-week-old mice as described previously. Briefly, LPS (L4391, MilliporeSigma, Burlington, MA, USA) was dissolved in sterile saline and administered at 50 µg/mouse in 40 µL after anesthesia induced by ketamine/xylazine. The mice were studied 24 h after LPS or saline instillation.
BALF was collected from anesthetized mice by lavaging lungs two times with 0.8 mL Hanks’ balanced salt solution without calcium and magnesium (HBSS) (Sigma-Aldrich, St. Louis, MI, USA). Supernatants were collected as BALF for further analyses.
The number of cells in the BALF was estimated using an automated cell counter, the Countess II FL cell counter (Thermo Fisher Scientific Inc., Waltham, MA, USA).
Albumin levels were measured by the Mouse Albumin Elisa Assay kit (Cat # E99-134), which was obtained from Bethyl Laboratories. BALF samples from the LPS group were diluted at a 1:2000 ratio.
Total protein in BALF samples was measured using the Pierce BCA protein assay kit (Cat # 23225) as detailed in the product manual (Thermo Fisher Scientific).
The right middle lobe was immediately placed in an RNA later solution and stored at −80 °C until the RNA extraction procedure. RNA extraction was performed using RNeasy Mini Kits from Qiagen (Valencia, CA, USA). One microgram of total RNA was reverse transcribed to cDNA using an iScript cDNA synthesis kit (Bio-Rad, Hercules, CA, USA). Expression of the target genes was quantified using gene-specific primers and PowerSYBRGreen master mix (Thermo Fisher Scientific) in a QuantStudio 3 Real-Time PCR instrument (Thermo Fisher Scientific). Predesigned mouse IL-6 (QT00098875), TNF-α (QT00104006), IL-1β (QT01048355), CXCL1 (QT00115647), CCL2 (QT00167832), CXCL3 (QT00151599) and CXCL9 (QT00097062) primers were purchased from Qiagen (Valencia, CA, USA). Fold changes in gene expression relative to the housekeeping gene TATA-Box Binding Protein (Tbp, QT00198443) were determined. Gene expression values were calculated based on the […] method.

C57BL/6J male mice = experiment: Hot plate model; assay type: in vivo; details: 10 mg/kg i.p.
Protocol: Thermal nociception in the hot plate test was assessed with a commercially available apparatus (Hotplate Analgesia Meter, Columbus Instruments) consisting of a metal plate to a constant temperature of 55.0 ± 0.1 °C. Mice were put into the hot plate testing instrument to adapt for at least 15 min. The device was connected to a manually operated timer that recorded the amount of time the mouse spent on the heated surface before showing signs of nociception (e.g., licked its paws or jumped), the cut-off time was 60 s. The baseline (basic pain threshold, the response was more than 25 s, and the jumping mice were excluded.) was calculated as the mean of three readings recorded before testing at intervals of 15 min. The time course of latency was then determined at 15, 30, 45, 60, 90, and 120 min after compound treatment. Data were analyzed as time-course curves of the percentage of maximum effect MPE% = (post drug latency − baseline latency) × 100/(cut-off time − baseline latency). C57BL/6J male mice obtained from The Jackson Laboratory (Bar Harbor, ME, USA) weighing 28 g were used for the hot plate test. Animal procedures were conducted following the rules and regulations of the Institutional Animal Care and Use Committee of the National Institute on Alcohol Abuse and Alcoholism (NIAAA) under the protocols of LPS-GK1.

[1] = In vivo pharmacokinetic experiment; design: species or system C57BL/6J mice; details: mice, 10 mg/kg; for Cmax (in words): oral
Protocol: Twenty 8–9-week-old male C57BL/6J mice were taken for the in vivo pharmacokinetic experiment. They were divided into four groups, each containing five mice. Each group was used for either oral or intraperitoneal administration of compound 4f or 15a. Both the compounds were reconstituted in 5% DMSO, 5% TWEEN 80 in saline water (pH = 7.4). The mice were orally and intraperitoneally administered compounds at 10 mg/kg dose. Blood samples were collected at 0, 0.5, 1, 2, 4, 6, and 24 h after administration of the compound, and serum was isolated with the compound. For the pharmacokinetic study, 10 μL of serum samples from mice were extracted with a 2:1 mixture of LC/MS-grade chloroform and methanol, followed by intermittent vortexing, and then centrifuged at 4000 rpm for 10 min at 4 °C. Thereafter, the supernatant was collected and analyzed by LC−MS/MS to measure the concentrations of compounds 4f and 15a in the serum.

Row | SMILES | effect on LPS-induced increase in total protein in BALF (mice) | number of cells in bronchoalveolar lavage (BAL) (mice) | LPS-induced lung gene expression of interleukin 1B (IL-1B) (mice; qPCR) | lung gene expression of CCL-2 (mice; qPCR) | lung gene expression of CXCL1 (mice; qPCR) | LPS-induced lung gene expression of interleukin 6 (IL-6) (mice; qPCR, 10 mg/kg) | analgesic effect in hot plate assay (C57BL/6J male mice) | half-life ([1]; male, C57BL/6J, mouse, serum, other: oral and intraperitoneal, oral and intraperitoneal administration, read-out: plasma half-life) | Cmax (in words) [1] | LPS-induced lung gene expression of interleukin 6 (IL-6) (mice; qPCR)
1 | O=C(NC12CC3CC(CC(C3)C1)C2)NS(=O)(=O)c1ccc(OC(F)(F)F)cc1 [Compound 4f] | neither AUDA nor novel sEH inhibitors’ (4f and 4l) effect | similarly attenuated the number of cells in BAL | attenuated | more pronounced in reducing IL-6 and CCL-2 expressions | similarly attenuated | attenuated; also recorded: more pronounced in reducing IL-6 and CCL-2 expressions | none of the sEH inhibitors, including AUDA, showed any analgesic effect | < 2 h | better than that of 15a | –
2 | O=C(NC12CC3CC(CC(C3)C1)C2)NS(=O)(=O)c1ccc2ccccc2c1 [Compound 4l] | neither AUDA nor novel sEH inhibitors’ (4f and 4l) effect | – | had no effect on reducing these | – | – | – | none of the sEH inhibitors, including AUDA, showed any analgesic effect | – | promising Cmax value | had no effect on reducing these
